Results published in patent publication US9212168B2 (priority 2011, dated 2015).

test system: HCV genotype 1a replicon; experiment: HCV genotype 1a replicon assay (NS3 protease activity readout); format: cell-based, hepatitis C virus; details: HCV genotype 1a replicon
Summary of the method: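 EC50 values came from a 4-parameter robust fit of fluorescence (ex 340, em 509 nm) produced by NS3-specific protease in lysates, assayed with 15 μM FRET substrate for 20 min at 37° C, after 48 or 72 hours of compound exposure (0.5% DMSO) of Huh7.5-derived APC89 genotype 1a replicon cells.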

Which “Genotype 1a” value does the source give for COC(=O)NC(C(=O)N1CC(OC)CC1c1nc(-c2ccc(-c3cc(F)c(NC(=O)c4ccc(N5CCN(C(=O)C(C)(C)CO)CC5C)nc4)cc3OC(F)(F)F)cc2)c[nH]1)C(C)O (stereo not shown) [Example 16-12] here?
The value was “C (C represents pEC50 between and 9 and about 10, (EC50 between 1 nM and 0.1 nM))”.

For COC(=O)NC(C(=O)N1CC(OC)CC1c1nc(-c2ccc(-c3ccc(NC(=O)c4ccc(N5CCN(C(=O)C(C)(C)CO)CC5C)nc4)cc3OC(F)(F)F)cc2)c[nH]1)C(C)OC (stereo not shown) [Example 16-16], which “Genotype 1a” value is on record?
Its value is “D (D represents pEC50>10 (EC50<0.1 nM))”.

How did the “Genotype 1a” value turn out when COC(=O)NC(C(=O)N1CC(OC)CC1c1nc(-c2ccc(-c3ccc(NC(=O)c4ccc(N5CCN(C(=O)C(C)(C)CO)CC5C)nc4)cc3OC(F)(F)F)cc2)c[nH]1)C(C)(C)O (stereo not shown) [Example 16-17] was run?
The value was “D (D represents pEC50>10 (EC50<0.1 nM))”.

How did the “Genotype 1a” value turn out when COC(=O)NC(C(=O)N1CC(OC)CC1c1nc(-c2ccc(-c3ccc(NC(=O)c4ccc(N5CCN(C(=O)C(C)(C)C)CC5C)nc4)cc3OC(F)(F)F)cc2)c[nH]1)C(C)(C)O (stereo not shown) [Example 16-18] was run?
Its value is “D (D represents pEC50>10 (EC50<0.1 nM))”.

With COC(=O)NC(C(=O)N1C(C)CCC1c1nc(-c2ccc(-c3ccc(C(=O)Nc4ccc(N5CCN(C(=O)C6CC6(C)C)CC5C)nc4)cc3OC(F)(F)F)cc2)c(Cl)[nH]1)C(C)C (stereo not shown) [Example 18-1] as the compound, how does the “Genotype 1a” value read?
The value was “C (C represents pEC50 between and 9 and about 10, (EC50 between 1 nM and 0.1 nM))”.

With COC(=O)N[C@H](C(=O)N1[C@@H](C)CC[C@H]1c1nc(-c2ccc(-c3ccc(C(=O)Nc4ccc(N5CCN(C(=O)C(C)(C)C)C[C@H]5C)nc4)cc3OC(F)(F)F)cc2)c(Cl)[nH]1)C(C)C [Example 18-2] as the compound, how does the “Genotype 1a” value read?
Its value is “C (C represents pEC50 between and 9 and about 10, (EC50 between 1 nM and 0.1 nM))”.

With COC(=O)NC(C(=O)N1C(C)CCC1c1nc(-c2ccc(-c3ccc(C(=O)Nc4ccc(N5CCN(C(=O)C6CC6(C)C)CC5C)nc4)cc3OC(F)(F)F)cc2)c[nH]1)C(C)C (stereo not shown) [Example 18-3] as the compound, how does the “Genotype 1a” value read?
Its value is “C (C represents pEC50 between and 9 and about 10, (EC50 between 1 nM and 0.1 nM))”.

For COC(=O)N[C@H](C(=O)N1[C@@H](C)CC[C@H]1c1nc(-c2ccc(-c3ccc(C(=O)Nc4ccc(N5CCN(C(=O)C(C)(C)C)C[C@H]5C)nc4)cc3OC(F)(F)F)cc2)c[nH]1)C(C)C [Example 18-4], which “Genotype 1a” value is on record?
Its value is “C (C represents pEC50 between and 9 and about 10, (EC50 between 1 nM and 0.1 nM))”.

Which “Genotype 1a” value does the source give for COC(=O)N[C@@H](C(=O)N1C[C@@H](C)C[C@H]1c1nc(-c2ccc(-c3cc(Cl)c(NC(=O)c4ccc(N5CCN(C(=O)C(C)(C)C)C[C@H]5C)nc4)cc3C(F)(F)F)cc2)c[nH]1)C1CCCCC1 [Example 19-3] here?
The value was “A (A represents a pEC50 value between 6 and 8 (EC50 between 1 μM and 10 nM))”.

COC(=O)N[C@H](C(=O)N1C[C@@H](C)C[C@H]1c1nc(-c2ccc(-c3cc(Cl)c(NC(=O)c4ccc(N5CCN(C(=O)C(C)(C)CO)C[C@H]5C)nc4)cc3C(F)(F)F)cc2)c[nH]1)C1CCOCC1 [Example 19-4] was tested. Which “Genotype 1a” value did it give?
Its value is “D (D represents pEC50>10 (EC50<0.1 nM))”.

COC(=O)N[C@@H](C(=O)N1C[C@@H](C)C[C@H]1c1nc(-c2ccc(-c3cc(Cl)c(NC(=O)c4ccc(N5CCN(C(=O)C(C)(C)CO)C[C@H]5C)nc4)cc3C(F)(F)F)cc2)c[nH]1)C1CCCCC1 [Example 19-5] was tested. Which “Genotype 1a” value did it give?
Its value is “A (A represents a pEC50 value between 6 and 8 (EC50 between 1 μM and 10 nM))”.

Which “Genotype 1a” value does the source give for COC(=O)N[C@H](C(=O)N1C[C@@H](C)C[C@H]1c1nc(-c2ccc(-c3cc(Cl)c(NC(=O)c4ccc(N5CCN(C(=O)C(C)(C)CO)C[C@H]5C)nc4)cc3C(F)(F)F)cc2)c[nH]1)C1CCCCC1 [Example 19-7] here?
Its value is “B (B represents pEC50 between 8 and 9 (EC50 between 1 and 10 nM))”.

COC(=O)N[C@H](C(=O)N1C[C@@H](C)C[C@H]1c1nc(-c2ccc(-c3cc(Cl)c(NC(=O)c4ccc(N5CCN(C(=O)C(C)(C)C)C[C@H]5C)nc4)cc3C(F)(F)F)cc2)c[nH]1)C1CCCCC1 [Example 19-8] was tested. Which “Genotype 1a” value did it give?
The value was “B (B represents pEC50 between 8 and 9 (EC50 between 1 and 10 nM))”.

With COC(=O)NC(C(=O)N1CC(C)CC1c1nc(-c2ccc(-c3cc(Cl)c(NC(=O)c4ccc(N5CCN(C(=O)C(C)(C)C)CC5C)nc4)cc3C(F)(F)F)cc2)c[nH]1)C1CC(C)OC(C)C1 (stereo not shown) [Example 19-10] as the compound, how does the “Genotype 1a” value read?
Its value is “A (A represents a pEC50 value between 6 and 8 (EC50 between 1 μM and 10 nM))”.

For COC(=O)N[C@H](C(=O)N1C[C@@H](C)C[C@H]1c1nc(-c2ccc(-c3cc(Cl)c(NC(=O)c4ccc(N5CCN(C(=O)C(C)(C)C)C[C@H]5C)nc4)cc3C(F)(F)F)cc2)c[nH]1)C1CCCC1 [Example 19-11], which “Genotype 1a” value is on record?
Its value is “D (D represents pEC50>10 (EC50<0.1 nM))”.

With COC(=O)N[C@H](C(=O)N1C[C@@H](OC)C[C@H]1c1nc(-c2ccc(-c3cc(Cl)c(NC(=O)c4ccc(N5CCN(C(=O)C(C)(C)CO)C[C@H]5C)nc4)cc3C(F)(F)F)cc2)c[nH]1)C1CCOCC1 [Example 19-13] as the compound, how does the “Genotype 1a” value read?
The value was “D (D represents pEC50>10 (EC50<0.1 nM))”.

How did the “Genotype 1a” value turn out when COC(=O)N[C@@H](C(=O)N1C[C@@H](OC)C[C@H]1c1nc(-c2ccc(-c3cc(Cl)c(NC(=O)c4ccc(N5CCN(C(=O)C(C)(C)CO)C[C@H]5C)nc4)cc3C(F)(F)F)cc2)c[nH]1)C1CCCCC1 [Example 19-14] was run?
The value was “A (A represents a pEC50 value between 6 and 8 (EC50 between 1 μM and 10 nM))”.

COC(=O)N[C@H](C(=O)N1C[C@@H](OC)C[C@H]1c1nc(-c2ccc(-c3cc(Cl)c(NC(=O)c4ccc(N5CCN(C(=O)C(C)(C)CO)C[C@H]5C)nc4)cc3C(F)(F)F)cc2)c[nH]1)C1CCCCC1 [Example 19-15] was tested. Which “Genotype 1a” value did it give?
Its value is “D (D represents pEC50>10 (EC50<0.1 nM))”.

Which “Genotype 1a” value does the source give for COC(=O)N[C@H](C(=O)N1C[C@@H](OC)C[C@H]1c1nc(-c2ccc(-c3cc(Cl)c(NC(=O)c4ccc(N5CCN(C(=O)C(C)(C)C)C[C@H]5C)nc4)cc3C(F)(F)F)cc2)c[nH]1)C1CCOCC1 [Example 19-16] here?
Its value is “D (D represents pEC50>10 (EC50<0.1 nM))”.

Which “Genotype 1a” value does the source give for COC(=O)N[C@H](C(=O)N1C[C@@H](OC)C[C@H]1c1nc(-c2ccc(-c3cc(Cl)c(NC(=O)c4ccc(N5CCN(C(=O)C(C)(C)C)C[C@H]5C)nc4)cc3C(F)(F)F)cc2)c[nH]1)C1CCCCC1 [Example 19-17] here?
Its value is “C (C represents pEC50 between and 9 and about 10, (EC50 between 1 nM and 0.1 nM))”.

For COC(=O)NC(C(=O)N1C[C@@H](C)C[C@H]1c1nc(-c2ccc(-c3c(F)cc(NC(=O)c4ccc(N5CCN(C(=O)C(C)(C)C)C[C@H]5C)nc4)cc3F)cc2)c[nH]1)C1CCCCC1 (stereo partly shown) [Example 21-1], which “Genotype 1a” value is on record?
The value was “A (A represents a pEC50 value between 6 and 8 (EC50 between 1 μM and 10 nM))”.

With COC(=O)NC(C(=O)N1C[C@@H](C)C[C@H]1c1nc(-c2ccc(-c3c(F)cc(NC(=O)c4ccc(N5CCN(C(=O)C(C)(C)C)C[C@H]5C)nc4)cc3F)cc2)c[nH]1)C1CCCCC1 (stereo partly shown) [Example 21-4] as the compound, how does the “Genotype 1a” value read?
The value was “C (C represents pEC50 between and 9 and about 10, (EC50 between 1 nM and 0.1 nM))”.

Which “Genotype 1a” value does the source give for COC(=O)N[C@H](C(=O)N1C[C@@H](C)C[C@H]1c1nc(-c2ccc(-c3ccc(C(=O)Nc4ccc(N5CCN(C(=O)[C@H]6CC6(C)C)C[C@H]5C)nc4)cc3)cc2)c[nH]1)C1CCOCC1 [Example 22-2] here?
Its value is “D (D represents pEC50>10 (EC50<0.1 nM))”.

With COC(=O)N[C@H](C(=O)N1C[C@@H](OC)C[C@H]1c1nc(-c2ccc(-c3ccc(C(=O)Nc4ccc(N5CCN(C(=O)C(C)(C)CO)C[C@H]5C)nc4)cc3OC(F)(F)F)cc2)c[nH]1)C1CCOCC1 [Example 22-14] as the compound, how does the “Genotype 1a” value read?
The value was “D (D represents pEC50>10 (EC50<0.1 nM))”.

Which “Genotype 1a” value does the source give for COC(=O)N[C@H](C(=O)N1C[C@@H](OC)C[C@H]1c1nc(-c2ccc(-c3ccc(C(=O)Nc4ccc(N5CCN(C(=O)[C@H]6CC6(C)C)C[C@H]5C)nc4)cc3)cc2)c[nH]1)C1CCOCC1 [Example 22-15] here?
The value was “D (D represents pEC50>10 (EC50<0.1 nM))”.

With COC(=O)N[C@H](C(=O)N1C[C@@H](OC)C[C@H]1c1nc(-c2ccc(-c3cc(Cl)c(C(=O)Nc4ccc(N5CCN(C(=O)C(C)(C)CO)C[C@H]5C)nc4)cc3OC(F)(F)F)cc2)c[nH]1)C1CCOCC1 [Example 22-17] as the compound, how does the “Genotype 1a” value read?
The value was “D (D represents pEC50>10 (EC50<0.1 nM))”.

COC(=O)NC(C(=O)N1C[C@@H](C)C[C@H]1c1nc(-c2ccc(-c3cc(Cl)c(C(=O)Nc4ccc(N5CCN(C(=O)C(C)(C)C)C[C@H]5C)nc4)cc3OC(F)(F)F)cc2)c[nH]1)C1C[C@@H](C)O[C@@H](C)C1 (stereo partly shown) [Example 23-1] was tested. Which “Genotype 1a” value did it give?
The value was “A (A represents a pEC50 value between 6 and 8 (EC50 between 1 μM and 10 nM))”.

With COC(=O)NC(C(=O)N1C[C@@H](C)C[C@H]1c1nc(-c2ccc(-c3cc(Cl)c(C(=O)Nc4ccc(N5CCN(C(=O)C(C)(C)C)C[C@H]5C)nc4)cc3OC(F)(F)F)cc2)c[nH]1)C1C[C@@H](C)O[C@@H](C)C1 (stereo partly shown) [Example 23-2] as the compound, how does the “Genotype 1a” value read?
Its value is “D (D represents pEC50>10 (EC50<0.1 nM))”.

COC(=O)N[C@H](C(=O)N1C[C@@H](C)C[C@H]1c1nc(-c2ccc(-c3ccc(C(=O)Nc4ccc(N5CCN(C(=O)C(C)(C)C)C[C@H]5C)nc4)cc3OC(F)F)cc2)c[nH]1)C1CCOCC1 [Example 25-5] was tested. Which “Genotype 1a” value did it give?
Its value is “D (D represents pEC50>10 (EC50<0.1 nM))”.

same assay, conditions: Hepatitis C virus, read-out: Genotype 1a, HCV genotype 1a replicon

For COC(=O)NC(C(=O)N1C[C@@H](C)C[C@H]1c1nc(-c2ccc(-c3c(F)cc(NC(=O)c4ccc(N5CCN(C(=O)C(C)(C)C)C[C@H]5C)nc4)cc3F)cc2)c[nH]1)C1CCS(=O)(=O)CC1 (stereo partly shown) [Example 21-2], which EC50 is on record?
The EC50 was 10 to 1000 nM.

How did the EC50 turn out when COC(=O)NC(C(=O)N1C[C@@H](C)C[C@H]1c1nc(-c2ccc(-c3cc(Cl)c(C(=O)Nc4ccc(N5CCN(C(=O)C(C)(C)C)C[C@H]5C)nc4)cc3OC(F)(F)F)cc2)c[nH]1)C1CCCCC1 (stereo partly shown) [Example 23-3] was run?
The EC50 was 0.1 to 1 nM.

For COC(=O)NC(C(=O)N1C[C@@H](C)C[C@H]1c1nc(-c2ccc(-c3ccc(C(=O)Nc4ccc(N5CCN(C(=O)C(C)(C)C)C[C@H]5C)nc4)c(F)c3OC(F)(F)F)cc2)c[nH]1)C(C)C (stereo partly shown) [Example 25-1], which EC50 is on record?
The EC50 was 0.1 to 1 nM.

COC(=O)NC(C(=O)N1C[C@@H](C)C[C@H]1c1nc(-c2ccc(-c3ccc(C(=O)Nc4ccc(N5CCN(C(=O)C(C)(C)C)C[C@H]5C)nc4)c(Cl)c3OC(F)(F)F)cc2)c[nH]1)C1CCOCC1 (stereo partly shown) [Example 25-3] was tested. Which EC50 did it give?
The EC50 was 0.1 to 1 nM.

For COC(=O)NC(C(=O)N1C[C@@H](C)C[C@H]1c1nc(-c2ccc(-c3ccc(C(=O)Nc4ccc(N5CCN(C(=O)C(C)(C)C)C[C@H]5C)nc4)c(Cl)c3OC(F)(F)F)cc2)c[nH]1)C(C)C (stereo partly shown) [Example 25-4], which EC50 is on record?
Its EC50 is 0.1 to 1 nM.
